Reference: patent publication US20100069388A1, “N-HYDROXYACRYLAMIDE COMPOUNDS” (ASTELLAS PHARMA INC., priority 2006, published 2010)
Where a name gives a salt, the structure may show the parent alone.

What was measured:
[1] = system: splenic cells of Lewis rats; assay: Test 2: Determination of T-cell growth inhibitor activity (T lymphocyte blastogenesis, Concanavalin A, AlamarBlue); assay type: cell-based; details: Lewis rat splenic cells, Concanavalin A 1 μg/mL, 72 hours, read-out: Test 2: T-cell growth inhibitory activity IC50
Method: The T lymphocyte blastogenesis test was performed in microtiter plates with each well containing 1.5×10^5 splenic cells of Lewis rats in 0.1 mL RPMI-1640 medium supplemented with 10% fetal bovine serum (FBS), […] 2-mercaptoethanol, penicilln (100 units/mL) and streptomycin (100 μg/mL), to which Concanavalin A (1 μg/mL) was added. The cells were incubated at 37° C. in a humidified atmosphere of 5% CO2 for 72 hours. After the culture period, suppressive activities of the test compounds in T lymphocyte blastogenesis were quantified by AlamarBlue (trademark) Assay. The test samples were dissolved in DMSO and further diluted with RPMI-1640 medium and added to the culture. The activities of the test compounds were expressed as IC50.

[2] = system: human histone deacetylase (partially purified from Jurkat cells); assay: Test 1: Determination of histone deacetylase inhibitor activity ([3H] acetyl histone deacetylation); assay type: biochemical; details: partially purified human HDAC from Jurkat cells, [3H] acetyl-labeled histones, 25° C., 30 minutes; read-out: Test 1: HDAC inhibitory activity IC50
Method: The partial purification of human histone deacetylase, the preparation of [^3H] acetyl histones, and the assay for histone deacetylase activity were performed basically according to the method as proposed by Yoshida et al. as follows.
The human histone deacetylase was partially purified from human T cell leukemia Jurkat cells. Jurkat cells (5×10^8 cells) were suspended in 40 mL of the HDA buffer consisting of 15 mM potassium phosphate, pH 7.5, 5% glycerol and 0.2 mM EDTA. After homogenization, nuclei were collected by centrifugation (35,000×g, 10 min) and homogenized in 20 mL of the same buffer supplemented with 1 M (NH4)2SO4. The viscous homogenate was sonicated and clarified by centrifugation (35,000×g, 10 min), and the deacetylase was precipitated by raising the concentration of (NH4)2SO4 to 3.5 M. The precipitated protein was dissolved in 10 mL of the HDA buffer and dialyzed against 4 liters of the same buffer. The dialyzate was then loaded onto a DEAE-cellulose (Whatman DE52) column (25×85 mm) equilibrated with the same buffer and eluted with 300 mL of a linear gradient (0-0.6 M) of NaCl. A single peak of histone deacetylase activity appeared between 0.3 and 0.4 M NaCl.
To obtain [^3H] acetyl-labeled histone as the substrate for the histone deacetylase assay, 1×10^8 cells of Jurkat in 20 mL of RPMI-1640 medium (supplemented with 10% FBS, penicillin (50 units/mL) and streptomycin (50 μg/mL)) were incubated with 300 MBq [^3H] sodium acetate in the presence of 5 mM sodium butyrate for 30 minutes in 5% CO2-95% air atmosphere at 37° C. in a 75 cm^2 flask, harvested into a centrifuge tube (50 mL), collected by centrifugation at 1000 rpm for 10 minutes, and washed once with phosphate-buffered saline. The washed cells were suspended in 15 mL of ice-cold lysis buffer (10 mM Tris-HCl, 50 mM sodium bisulfite, 1% Triton X-100, 10 mM MgCl2, 8.6% sucrose, pH 6.5). After Dounce homogenization (30 stroke), the nuclei were collected by centrifugation at 1000 rpm for 10 minutes, washed 3 times with 15 mL of the lysis buffer, and once with 15 mL of ice-cooled washing buffer (10 mM Tris-HCl, 13 mM EDTA, pH 7.4) successively. The pellet was suspended in 6 mL of ice-cooled water using a mixer, and 68 μl of H2SO4 was added to the suspension to give a concentration of 0.4 N. After incubation at 4° C. for 1 hour, the suspension was centrifuged for 5 minutes at 15,000 rpm, and the supernatant was taken and mixed with 60 mL of acetone. After overnight incubation at −20° C., the coagulated material was collected by microcentrifugation, air-dried, and stored at −80° C.
For the standard assay, 10 μl of [^3H] acetyl-labeled histones were added to 90 μl of the enzyme fraction, and the mixture was incubated at 25° C. for 30 minutes. The reaction was stopped by addition of 10 μl of HCl aq. The released [^3H] acetic acid was extracted with 1 mL of ethyl acetate, and 0.9 mL of the solvent layer was taken into 10 mL of toluene scintillation solution for determination of radioactivity.

IC50 [2] [nM]	Compound	IC50 [1] [nM]
1.7	O=C(/C=C/c1cnc(NCCNC(=O)c2ccc(Cl)cc2)c(Cl)c1)NO [Example 3, 4-chloro-N-[2-({3-chloro-5-[(1E)-3-(hydroxyamino)-3-oxo-1-propen-1-yl]-2-pyridinyl}amino)ethyl]benzamide hydrochloride]	18
6.8	O=C(/C=C/c1cnc(NCCNC(=O)C2CCCCC2)c(Cl)c1)NO [Example 10]	17
8.8	C[C@H](CN(C)Cc1ccc(Cl)cc1)Nc1ncc(/C=C/C(=O)NO)cc1Cl [Example 11]	6.2
6	O=C(/C=C/c1cnc(NCCOc2ccccc2)cn1)NO [Example 23]	21
4	C[C@H](CN(C)Cc1ccccc1)Nc1cnc(/C=C/C(=O)NO)cn1 [Example 36]	1.5
0.78	C[C@H](CN(C)CC1CCCCC1)Nc1cnc(/C=C/C(=O)NO)cn1 [Example 39]	0.23
25	C[C@@H](Nc1ncc(/C=C/C(=O)NO)cc1Cl)C(=O)NCC1CCCCC1 [Example 49, N^2-{3-chloro-5-[(1E)-3-(hydroxyamino)-3-oxoprop-1-en-1-yl]pyridin-2-yl}-N^1-(cyclohexylmethyl)-D-alaninamide]	17
9.1	CC(C)[C@@H](Nc1cnc(/C=C/C(=O)NO)cn1)C(=O)NCC1CCCCC1 [Example 57]	4.7
3.9	C[C@H](CNC(=O)C1CCCCC1)Nc1cnc(/C=C/C(=O)NO)cn1 [Example 66]	21
8.2	C[C@@H](Nc1cnc(/C=C/C(=O)NO)cn1)C(=O)NC1Cc2ccccc2C1 [Example 86]	28
2.3	C[C@@H](Nc1cnc(/C=C/C(=O)NO)cn1)C(=O)NC1CCCCCC1 [Example 87]	3.2
2.7	C[C@@H](Nc1cnc(/C=C/C(=O)NO)cn1)C(=O)N[C@]12CC3C[C@H](C[C@H](C3)C1)C2 [Example 88]	1.5
1.5	CC(C)[C@@H](Nc1cnc(/C=C/C(=O)NO)cn1)C(=O)Nc1ccccc1 [Example 91]	2.6
